Data from patent publication US20240376085A1 (Janssen Pharmaceutica NV, priority 2021, published 2024).

How the values were obtained:
IL-17A : IL-17RA binding = biological target: T1, IL-17A : IL-17RA binding (Homo sapiens, UniProt Q16552, K93Q); experiment: IL-17A(FLAG-tagged):IL-17RA(His-tagged) binding disruption Eu-HTRF assay, Protocol 1; settings: FLAG-IL-17A 2.5 nM at 2x final concentration; average if tested more than once
T1 construct: Name: IL-17A-Flag
Description: An antibody directed against the FLAG tag of IL-17A (SEQ ID NO: 1) is labeled with the HTRF donor chromophore (Europium-cryptate). IL-17A is present as a dimer that is “locked into” this quaternary structure due to the formation of loop-spanning […] disulfide bridges. The construct of IL-17RA used in the assay excludes the […] portion of the receptor and is fused to a C-terminal 10×His tag (SEQ ID NO:2). An antibody directed against the His tag of the IL-17RA chimera is labeled with the HTRF acceptor chromophore (“D2”). The fluorescence-resonance energy transfer (FRET) depends on the vicinity of the donor chromophore to the acceptor, and interruption of the binding between the IL-17A and IL-17RA causes the reduction/loss of FRET. Therefore, this assay allows to evaluate the compound effect on the binding IL-17A and IL-17RA by monitoring the fluorescence intensity of donor vs acceptor. The assay was run using either Protocol 1 or Protocol 2 as described below.
Protocol 1. 40 nl of 2-fold serial diluted compound solution for total 22 dilution points is added into each well of a 1536-well, white, low-volume, non-binding plate (Greiner #782904), then 2 μl of FLAG tagged IL-17A at 2× final concentration (2.5 nM) in solution of PBS+0.01% Triton-X100 is added to each well. The assay plate is briefly centrifuged then incubated for 1 h at rt. A mixed solution is prepared containing 2×5 nM 10HIS×IL-17RA, 2×2.5 nM Eu-anti-FLAG (CISBIO), 2×5 nM D2-anti-HIS (CISBIO) in PBS+0.01% Triton-X100+200 mM Potassium Fluoride (Sigma 60238) and 2 μl of mix is added to each well of the assay plate. The plate is briefly centrifuged then incubated for 2 h at rt. The HTRF intensities at the wavelength of donor (620 nm) and acceptor (665 nm) are measured using BMG Pherastar. The ratio between intensities at two wavelengths is calculated and plotted against the compound concentration and the data is fitted to a one-site competition model to yield IC50 of the compound.

[1] = tested on: IL-17A-induced G-CSF production in human normal keratinocyte (NHK); experiment: NHK assay: IL-17A-induced G-CSF production in normal human keratinocytes; type: cell-based; settings: 24 h, IL-17A 5 ng/mL, average if tested more than once
Experimental: IL-17A acts directly on keratinocytes through binding to dimeric receptor IL-17RA/RC and drives the production of a number of inflammatory mediators known to be elevated in psoriasis lesional tissue. IL-17A small molecule inhibitors that block the IL-17A to interact with IL-17R would inhibit the IL-17A signaling in its targeted cells such as keratinocytes. The compound functional activity is evaluated for its impact on IL-17A-induced G-CSF production in human normal keratinocyte (NHK).
Adult normal human keratinocytes are cultured in keratinocyte growth medium (Lonza) in a flask till reaching ˜90% confluence, then cells are transferred to a 384-well plate at density of 3000-4000 cell/well. Recombinant human IL-17A (Gibco PHC9174) is pre-incubated with titrated compound or DMSO for 1 h at rt then added to the cell culture plate. The final concentration of IL-17A is 5 ng/mL and DMSO is 0.2%, in the culture containing 5% FBS. Cells are cultured/treated for 24 h at 37° C. Supernatants are collected and G-CSF production is measured through HTRF technology using Human G-CSF Kit (CisBio). G-CSF concentration was extrapolated from the standard curve and IC50 is determined using GraphPad Prism. Cell viability is also evaluated using CellTiter-Glo kit (Promega) and effect of compound on cell viability is compared to DMSO control.

T1 sequence (Q16552 with tags, fused parts or gaps K93Q): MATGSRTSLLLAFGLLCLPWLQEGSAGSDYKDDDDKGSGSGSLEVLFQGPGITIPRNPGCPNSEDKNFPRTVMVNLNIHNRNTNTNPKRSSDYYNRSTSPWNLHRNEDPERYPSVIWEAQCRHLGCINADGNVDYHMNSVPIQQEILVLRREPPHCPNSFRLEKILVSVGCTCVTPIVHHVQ

IC50 (IL-17A : IL-17RA binding) | Structure (SMILES) | IC50 ([1]; Homo sapiens, Keratinocyte) | IC50 [1]
> 0.1 µM | Cn1nccc1C(=O)N[C@H](c1nc2cc(C(NC(=O)CCC(F)(F)F)C3CC3)ccc2[nH]1)C1CCC(F)(F)CC1 (single isomer, unassigned) [Example 54, N—((S)-(5-((S*)-Cyclopropyl(4,4,4-trifluorobutanamido)methyl)-1H-benzo[d]imidazol-2-yl)(4,4-difluorocyclohexyl)methyl)-1-methyl-1H-pyrazole-5-carboxamide] | < 0.05 µM | 
> 0.1 µM | Cn1nccc1C(=O)N[C@H](c1nc2cc(C(NC(=O)CCC(F)(F)F)C3CC3)ccc2[nH]1)C1CCC(F)(F)CC1 (single isomer, unassigned) [Example 55, N—((S)-(5-((R*)-Cyclopropyl(4,4,4-trifluorobutanamido)methyl)-1H-benzo[d]imidazol-2-yl)(4,4-difluorocyclohexyl)methyl)-1-methyl-1H-pyrazole-5-carboxamide] |  | > 0.1 µM
0.05 to 0.1 µM | CC(C)c1c(C(=O)NC(CC(C)(C)C(F)(F)F)c2nc3cc([C@@H](C)NC(=O)CCC(F)(F)F)ccc3[nH]2)no[n+]1[O-] (single isomer, unassigned) [Example 56, 3-Isopropyl-4-(((S*)-4,4,4-trifluoro-3,3-dimethyl-1-(5-((R)-1-(4,4,4-trifluorobutanamido)ethyl)-1H-benzo[d]imidazol-2-yl)butyl)carbamoyl)-1,2,5-oxadiazole 2-oxide] | 0.05 to 0.1 µM | 
< 0.05 µM | CC(C)c1nonc1C(=O)NC(CC(C)(C)C(F)(F)F)c1nc2cc([C@@H](C)NC(=O)CCC(F)(F)F)ccc2[nH]1 (single isomer, unassigned) [Example 57, 4-Isopropyl-N—((S*)-4,4,4-trifluoro-3,3-dimethyl-1-(5-((R)-1-(4,4,4-trifluorobutanamido)ethyl)-1H-benzo[d]imidazol-2-yl)butyl)-1,2,5-oxadiazole-3-carboxamide] | < 0.05 µM | 
> 0.1 µM | CC(Cn1ncc(C(=O)N[C@H](c2nc3ccc([C@@H](C)NC(=O)CCC(F)(F)F)cc3[nH]2)C2CCC(F)(F)CC2)n1)C(F)(F)F (single isomer, unassigned) [Example 69, N—((S)-(4,4-Difluorocyclohexyl)(6-((R)-1-(4,4,4-trifluorobutanamido)ethyl)-1H-benzo[d]imidazol-2-yl)methyl)-2-((R*)-3,3,3-trifluoro-2-methylpropyl)-2H-1,2,3-triazole-4-carboxamide] | > 0.1 µM | 
> 0.1 µM | CC(Cn1ncc(C(=O)N[C@H](c2nc3ccc([C@@H](C)NC(=O)CCC(F)(F)F)cc3[nH]2)C2CCC(F)(F)CC2)n1)C(F)(F)F (single isomer, unassigned) [Example 70, N—((S)-(4,4-Difluorocyclohexyl)(6-((R)-1-(4,4,4-trifluorobutanamido)ethyl)-1H-benzo[d]imidazol-2-yl)methyl)-2-((S*)-3,3,3-trifluoro-2-methylpropyl)-2H-1,2,3-triazole-4-carboxamide] |  | > 0.1 µM
> 0.1 µM | CC(Cn1nncc1C(=O)N[C@H](c1nc2ccc([C@@H](C)NC(=O)CCC(F)(F)F)cc2[nH]1)C1CCC(F)(F)CC1)C(F)(F)F (single isomer, unassigned) [Example 71, N—((S)-(4,4-Difluorocyclohexyl)(6-((R)-1-(4,4,4-trifluorobutanamido)ethyl)-1H-benzo[d]imidazol-2-yl)methyl)-1-((R*)-3,3,3-trifluoro-2-methylpropyl)-1H-1,2,3-triazole-5-carboxamide] | > 0.1 µM | 
> 0.1 µM | CC(Cn1nncc1C(=O)N[C@H](c1nc2ccc([C@@H](C)NC(=O)CCC(F)(F)F)cc2[nH]1)C1CCC(F)(F)CC1)C(F)(F)F (single isomer, unassigned) [Example 72, N—((S)-(4,4-Difluorocyclohexyl)(6-((R)-1-(4,4,4-trifluorobutanamido)ethyl)-1H-benzo[d]imidazol-2-yl)methyl)-1-((S*)-3,3,3-trifluoro-2-methylpropyl)-1H-1,2,3-triazole-5-carboxamide] |  | > 0.1 µM
> 0.1 µM | C[C@@H](NC(=O)CCC(F)(F)F)c1ccc2[nH]c([C@@H](NC(=O)CC3CC3(F)F)C3CCC(F)(F)CC3)nc2c1 (single isomer, unassigned) [Example 107, N—((R)-1-(2-((S)-(4,4-Difluorocyclohexyl)(2-((R*)-2,2-difluorocyclopropyl)acetamido)methyl)-1H-benzo[d]imidazol-5-yl)ethyl)-4,4,4-trifluorobutanamide] | > 0.1 µM | 
> 0.1 µM | C[C@@H](NC(=O)CCC(F)(F)F)c1ccc2[nH]c([C@@H](NC(=O)CC3CC3(F)F)C3CCC(F)(F)CC3)nc2c1 (single isomer, unassigned) [Example 108, N—((R)-1-(2-((S)-(4,4-Difluorocyclohexyl)(2-((S*)-2,2-difluorocyclopropyl)acetamido)methyl)-1H-benzo[d]imidazol-5-yl)ethyl)-4,4,4-trifluorobutanamide] |  | > 0.1 µM
> 0.1 µM | C[C@@H](NC(=O)CCC(F)(F)F)c1ccc2[nH]c([C@@H](NC(=O)[C@@H]3CC[C@@H]3CF)C3CCC(F)(F)CC3)nc2c1 (single isomer, unassigned) [Example 113] | > 0.1 µM | 
> 0.1 µM | C[C@@H](NC(=O)CCC(F)(F)F)c1ccc2[nH]c([C@@H](NC(=O)[C@H]3CC[C@@H]3CF)C3CCC(F)(F)CC3)nc2c1 (single isomer, unassigned) [Example 114] | > 0.1 µM | 
> 0.1 µM | CC(CC(=O)N[C@H](C)c1ccc2nc([C@@H](NC(=O)c3ccnn3CC(F)(F)F)C3CCC(F)(F)CC3)[nH]c2c1)C(F)(F)F (single isomer, unassigned) [Example 133, N—((S)-(4,4-Difluorocyclohexyl)(6-((R)-1-((R*)-4,4,4-trifluoro-3-methylbutanamido)ethyl)-1H-benzo[d]imidazol-2-yl)methyl)-1-(2,2,2-trifluoroethyl)-1H-pyrazole-5-carboxamide] | > 0.1 µM | 
> 0.1 µM | CC(CC(=O)N[C@H](C)c1ccc2nc([C@@H](NC(=O)c3ccnn3CCC(F)(F)F)C3CCC(F)(F)CC3)[nH]c2c1)C(F)(F)F (single isomer, unassigned) [Example 134, N—((S)-(4,4-Difluorocyclohexyl)(6-((R)-1-((R*)-4,4,4-trifluoro-3-methylbutanamido)ethyl)-1H-benzo[d]imidazol-2-yl)methyl)-1-(3,3,3-trifluoropropyl)-1H-pyrazole-5-carboxamide] | > 0.1 µM | 
> 0.1 µM | CC(C)n1nccc1C(=O)N[C@H](c1nc2ccc([C@@H](C)NC(=O)CC(C)C(F)(F)F)cc2[nH]1)C1CCC(F)(F)CC1 (single isomer, unassigned) [Example 135, N—((S)-(4,4-Difluorocyclohexyl)(6-((R)-1-((R*)-4,4,4-trifluoro-3-methylbutanamido)ethyl)-1H-benzo[d]imidazol-2-yl)methyl)-1-isopropyl-1H-pyrazole-5-carboxamide] | < 0.05 µM | 
> 0.1 µM | CC(CC(=O)N[C@H](C)c1ccc2nc([C@@H](NC(=O)c3cc(F)ccc3F)C3CCC(F)(F)CC3)[nH]c2c1)C(F)(F)F (single isomer, unassigned) [Example 136, N—((S)-(4,4-Difluorocyclohexyl)(6-((R)-1-((R*)-4,4,4-trifluoro-3-methylbutanamido)ethyl)-1H-benzo[d]imidazol-2-yl)methyl)-2,5-difluorobenzamide] | > 0.1 µM | 
